Results published in patent US8969352B2, “Substituted 2-azabicycles and their use as orexin receptor modulators” (Janssen Pharmaceutica NV, priority 2013, dated 2015).
One block for each molecule: values may come before it.

What was measured:
[1] = biological target: human orexin 1 receptor (Homo sapiens, UniProt O43613); assay: Human orexin 1 receptor radioligand binding; settings: CHO cells stably expressing human orexin 1 receptor; competitive radioligand binding, apparent Ki; read-out: hOX1 Ki
Description: (§1) Rat and Human Orexin 1 Receptor Radioligand Binding Studies
(§2) After centrifugation (2K×G, 5 min at 4° C.), the supernatant was aspirated and the pellets frozen and stored at −80° C. […] Each cell pellet from a 15 cm plate was resuspended in 10 mL, stored on ice, and homogenized for 45 sec prior to addition to the reactions. […] The final concentration of DMSO in the reactions is equal to or less than 0.1%. Total and nonspecific binding was determined in the absence and presence of 10 μM almorexant. The total volume of each reaction is 200 μL (20 μL of diluted compounds, 80 μL of [^3H]-(1-(5-(2-fluoro-phenyl)-2-methyl-thiazol-4-yl)-1-((S)-2-(5-phenyl-(1,3,4)oxadiazol-2-ylmethyl)-pyrrolidin-1-yl)-methanone) diluted in PBS and 100 μL of the cell suspension). […] The plates were washed 3 times by aspirating 30 ml PBS through the plates. Plates were dried in 55° C. oven for 60 min, scintillation fluid was added, and the radioactivity was counted on a Topcount (Packard).

[2] = biological target: rat orexin 1 receptor (Rattus norvegicus, UniProt P56718); assay: Rat orexin 1 receptor radioligand binding; settings: HEK293 cells stably expressing rat orexin 1 receptor; competitive radioligand binding, apparent Ki; read-out: rOX1 Ki
Description: as §1, §2

[3] = biological target: human orexin 2 receptor (Homo sapiens (Human), UniProt O43614); assay: Human orexin 2 receptor radioligand binding; settings: HEK293 stably expressing human orexin 2 receptor; [3H]-EMPA competitive binding, apparent Ki; read-out: hOX2 Ki
human orexin 2 receptor, sequence (O43614 whole entry): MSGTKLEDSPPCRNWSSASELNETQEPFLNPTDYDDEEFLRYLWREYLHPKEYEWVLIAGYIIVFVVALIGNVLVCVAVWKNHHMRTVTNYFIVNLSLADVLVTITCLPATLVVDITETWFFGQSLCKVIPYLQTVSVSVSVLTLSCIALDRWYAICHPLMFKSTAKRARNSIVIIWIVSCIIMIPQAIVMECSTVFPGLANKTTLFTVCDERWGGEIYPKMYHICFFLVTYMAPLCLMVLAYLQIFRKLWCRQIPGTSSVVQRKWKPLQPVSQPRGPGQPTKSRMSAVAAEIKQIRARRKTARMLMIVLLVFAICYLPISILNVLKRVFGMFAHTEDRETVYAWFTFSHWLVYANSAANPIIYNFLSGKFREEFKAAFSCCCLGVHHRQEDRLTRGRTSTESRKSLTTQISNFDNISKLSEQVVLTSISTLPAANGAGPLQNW
Description: Human Orexin 2 Receptor Radioligand Binding Studies
as §2, with “sec just” for “sec”, “reactions. Competition binding experiments in 96 well polypropylene plates were performed using [^3H]-EMPA (Moraveck Corporation, specific activity=29.6 Ci/mmol), diluted to a 5 nM concentration in PBS (2 nM final concentration).” for “reactions.”, “[^3H]-EMPA” for “[^3H]-(1-(5-(2-fluoro-phenyl)-2-methyl-thiazol-4-yl)-1-((S)-2-(5-phenyl-(1,3,4)oxadiazol-2-ylmethyl)-pyrrolidin-1-yl)-methanone)”

Compound: O=C(c1ccccc1-n1nccn1)N1CC2CC(Oc3cnc(C(F)(F)F)cn3)C1C2 (racemic) [Example 1, (R/S)-(2-(2H-1,2,3-triazol-2-yl)phenyl)(6-((5-(trifluoromethyl)pyrazin-2-yl)oxy)-2-azabicyclo[2.2.1]heptan-2-yl)methanone]
Ki [1]: 120 nM
Ki [2]: 74 nM

Compound: Cc1ccc(-n2nccn2)c(C(=O)N2CC3CC(Oc4cnc(C(F)(F)F)cn4)C2C3)n1 (racemic) [Example 2, (R/S)-(6-methyl-3-(2H-1,2,3-triazol-2-yl)pyridin-2-yl)(6-((5-(trifluoromethyl)pyrazin-2-yl)oxy)-2-azabicyclo[2.2.1]heptan-2-yl)methanone]
Ki [1]: 342 nM
Ki [2]: 200 nM
Ki [3]: 10000 nM

Compound: CCOc1ncc2ccccc2c1C(=O)N1CC2CC(Oc3cnc(C(F)(F)F)cn3)C1C2 (racemic) [Example 3]
Ki [1]: 123 nM
Ki [2]: 63 nM
Ki [3]: 8900 nM

Compound: Cc1cnc(C(=O)N2CC3CC(Oc4cnc(C(F)(F)F)cn4)C2C3)c(-n2nccn2)c1 (racemic) [Example 4]
Ki [2]: 837 nM
Ki [3]: > 10000 nM

Compound: O=C(c1ccccc1-n1nccn1)N1CC2CC(Oc3ccc(C(F)(F)F)cn3)C1C2 (racemic) [Example 7, (R/S)-(2-(2H-1,2,3-triazol-2-yl)phenyl)(6-((5-(trifluoromethyl)pyridin-2-yl)oxy)-2-azabicyclo[2.2.1]heptan-2-yl)methanone]
Ki [1]: 12 nM
Ki [2]: 21 nM

Compound: CCOc1ncc2ccccc2c1C(=O)N1CC2CC(Oc3ccc(C(F)(F)F)cn3)C1C2 (racemic) [Example 8, (R/S)-(3-ethoxyisoquinolin-4-yl)(6-((5-(trifluoromethyl)pyridin-2-yl)oxy)-2-azabicyclo[2.2.1]heptan-2-yl)methanone]
Ki [3]: 1450 nM

Compound: CCOc1ccc2cccnc2c1C(=O)N1CC2CC(Oc3ccc(C(F)(F)F)cn3)C1C2 (racemic) [Example 10, (R/S)-(7-ethoxyquinolin-8-yl)(6-((5-(trifluoromethyl)pyridin-2-yl)oxy)-2-azabicyclo[2.2.1]heptan-2-yl)methanone]
Ki [1]: 27 nM
Ki [2]: 18 nM
Ki [3]: 526 nM

Compound: COc1ccc(C(=O)N2CC3CC(Oc4ccc(C(F)(F)F)cn4)C2C3)c(-c2ncccn2)c1 (racemic) [Example 12, (R/S)-(4-methoxy-2-(pyrimidin-2-yl)phenyl)(6-((5-(trifluoromethyl)pyridin-2-yl)oxy)-2-azabicyclo[2.2.1]heptan-2-yl)methanone]
Ki [1]: 59 nM
Ki [2]: 44 nM
Ki [3]: > 10000 nM

Compound: COc1cccc(-n2nccn2)c1C(=O)N1CC2CC(Oc3ccc(C(F)(F)F)cn3)C1C2 (racemic) [Example 15]
Ki [3]: 229 nM

Compound: O=C(c1cccc(F)c1-n1nccn1)N1CC2CC(Oc3ccc(C(F)(F)F)cn3)C1C2 (racemic) [Example 16, (R/S)-(3-fluoro-2-(2H-1,2,3-triazol-2-yl)phenyl)(6-((5-(trifluoromethyl)pyridin-2-yl)oxy)-2-azabicyclo[2.2.1]heptan-2-yl)methanone]
Ki [2]: 8 nM

Compound: Cc1cccc(C(=O)N2CC3CC(Oc4ccc(C(F)(F)F)cn4)C2C3)c1-n1nccn1 (racemic) [Example 17, (R/S)-(3-methyl-2-(2H-1,2,3-triazol-2-yl)phenyl)(6-((5-(trifluoromethyl)pyridin-2-yl)oxy)-2-azabicyclo[2.2.1]heptan-2-yl)methanone]
Ki [3]: 234 nM

Compound: O=C(c1c(F)cccc1-n1nccn1)N1CC2CC(Oc3ccc(C(F)(F)F)cn3)C1C2 (racemic) [Example 18, (R/S)-(2-fluoro-6-(2H-1,2,3-triazol-2-yl)phenyl)(6-((5-(trifluoromethyl)pyridin-2-yl)oxy)-2-azabicyclo[2.2.1]heptan-2-yl)methanone]
Ki [1]: 23 nM
Ki [2]: 25 nM

Compound: O=C(c1ccc(F)cc1-c1ncccn1)N1CC2CC(Oc3ccc(C(F)(F)F)cn3)C1C2 (racemic) [Example 20, (R/S)-(4-fluoro-2-(pyrimidin-2-yl)phenyl)(-6-((5-(trifluoromethyl)pyridin-2-yl)oxy)-2-azabicyclo[2.2.1]heptan-2-yl)methanone]
Ki [3]: 2700 nM

Compound: O=C(c1ccccc1-n1cnnc1)N1CC2CC(Oc3ccc(C(F)(F)F)cn3)C1C2 (racemic) [Example 21, (R/S)-(2-(4H-1,2,4-triazol-4-yl)phenyl)(6-((5-(trifluoromethyl)pyridin-2-yl)oxy)-2-azabicyclo[2.2.1]heptan-2-yl)methanone]
Ki [2]: > 10000 nM
Ki [3]: > 10000 nM

Compound: O=C(c1c(F)cccc1-c1ncccn1)N1C[C@H]2C[C@@H](Oc3ccc(Br)cn3)[C@@H]1C2 [Example 47, ((1S,4R,6R)-6-((5-bromopyridin-2-yl)oxy)-2-azabicyclo[2.2.1]heptan-2-yl)(2-fluoro-6-(pyrimidin-2-yl)phenyl)methanone]
Ki [1]: 11 nM
Ki [2]: 7 nM

Compound: O=C(c1ccccc1-n1nccn1)N1C[C@H]2C[C@@H](Nc3ccc(C(F)(F)F)cn3)[C@@H]1C2 [Example 53, (2-(2H-1,2,3-triazol-2-yl)phenyl)((1S,4S,6R)-6-((5-(trifluoromethyl)pyridin-2-yl)amino)-2-azabicyclo[2.2.1]heptan-2-yl)methanone]
Ki [1]: 3 nM
Ki [2]: 3 nM

More lines, now with the values ahead:

Ki [3]: 2100 nM
Compound: O=C(c1ccc(F)cc1-c1ncccn1)N1C[C@H]2C[C@@H](Oc3ccc(C(F)(F)F)cn3)[C@@H]1C2 [Example 26, (4-fluoro-2-(pyrimidin-2-yl)phenyl)((1S,4R,6R)-6-((5-(trifluoromethyl)pyridin-2-yl)oxy)-2-azabicyclo[2.2.1]heptan-2-yl)methanone]

Ki [2]: 707 nM
Ki [3]: > 10000 nM
Compound: COc1c(F)cccc1C(=O)N1C[C@H]2C[C@@H](Oc3ccc(C(F)(F)F)cn3)[C@@H]1C2 [Example 31, (3-fluoro-2-methoxyphenyl)((1S,4R,6R)-6-((5-(trifluoromethyl)pyridin-2-yl)oxy)-2-azabicyclo[2.2.1]heptan-2-yl)methanone]

Ki [1]: 4 nM
Ki [2]: 3 nM
Compound: Cc1cccc(C(=O)N2C[C@H]3C[C@@H](Oc4ccc(C(F)(F)F)cn4)[C@@H]2C3)c1-c1ncco1 [Example 32, (3-methyl-2-(oxazol-2-yl)phenyl)((1S,4R,6R)-6-((5-(trifluoromethyl)pyridin-2-yl)oxy)-2-azabicyclo[2.2.1]heptan-2-yl)methanone]

Ki [2]: 8 nM
Compound: O=C(c1cccc(F)c1-n1nccn1)N1C[C@H]2C[C@@H](Oc3ccc(C(F)(F)F)cn3)[C@@H]1C2 [Example 35, (3-fluoro-2-(2H-1,2,3-triazol-2-yl)phenyl)((1S,4R,6R)-6-((5-(trifluoromethyl)pyridin-2-yl)oxy)-2-azabicyclo[2.2.1]heptan-2-yl)methanone]

Ki [1]: 11 nM
Ki [2]: 5 nM
Compound: O=C(c1ccccc1-n1nccn1)N1C[C@H]2C[C@@H](Oc3ccc(C(F)(F)F)cn3)[C@@H]1C2 [Example 36, (2-(2H-1,2,3-triazol-2-yl)phenyl)((1S,4R,6R)-6-((5-(trifluoromethyl)pyridin-2-yl)oxy)-2-azabicyclo[2.2.1]heptan-2-yl)methanone]

Ki [2]: 4400 nM
Ki [3]: > 10000 nM
Compound: Cc1cnn(C)c1-c1ccccc1C(=O)N1C[C@H]2C[C@@H](Oc3ccc(C(F)(F)F)cn3)[C@@H]1C2 [Example 41, (2-(1,4-dimethyl-1H-pyrazol-5-yl)phenyl)((1S,4R,6R)-6-((5-(trifluoromethyl)pyridin-2-yl)oxy)-2-azabicyclo[2.2.1]heptan-2-yl)methanone]

Ki [1]: 12 nM
Ki [2]: 10 nM
Compound: O=C(c1c(F)cccc1-n1nccn1)N1C[C@H]2C[C@@H](Oc3ccc(C(F)(F)F)cn3)[C@@H]1C2 [Example 46, (2-fluoro-6-(2H-1,2,3-triazol-2-yl)phenyl)((1S,4R,6R)-6-((5-(trifluoromethyl)pyridin-2-yl)oxy)-2-azabicyclo[2.2.1]heptan-2-yl)methanone]

Ki [2]: 294 nM
Ki [3]: 676 nM
Compound: O=C(c1ccccc1-n1nccn1)N1C[C@H]2C[C@@H](Oc3ncccc3C(F)(F)F)[C@@H]1C2 [Example 51, (2-(2H-1,2,3-triazol-2-yl)phenyl)((1S,4R,6R)-6-((3-(trifluoromethyl)pyridin-2-yl)oxy)-2-azabicyclo[2.2.1]heptan-2-yl)methanone]

Ki [2]: 550 nM
Ki [3]: 4000 nM
Compound: Cc1ccc(-n2nccn2)c(C(=O)N2C[C@H]3C[C@@H](Oc4ncccc4C(F)(F)F)[C@@H]2C3)n1 [Example 52, (6-methyl-3-(2H-1,2,3-triazol-2-yl)pyridin-2-yl)((1S,4R,6R)-6-((3-(trifluoromethyl)pyridin-2-yl)oxy)-2-azabicyclo[2.2.1]heptan-2-yl)methanone]
